Assay [1] addresses T1, Ras farnesyl transferase (Rattus norvegicus, UniProt Q02293+Q04631).
T1 construct: endogenous in cells; host or cells: Rat2 fibroblasts transformed with C-Harvey-Ras or with the H-Ras/K-Ras polybasic-domain fusion
In words: In vivo (intracellular) Ras farnesylation inhibition in Rat2 cell line expressing C-Harvey-Ras. In kind it is cell-based. The following applies: Rat2 cells expressing C-Harvey-Ras; concentration inhibiting 50% of farnesyl binding; read-out: H-Ras CIC50. Put shortly:
(§1)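 Transformed Rat2 fibroblasts treated with compound (1% DMSO) for 4 h, then labelled with [^35S]methionine 150 μCi/ml for 20 h. Ras immunoprecipitated with Y13-259 and resolved on 13.5% SDS-PAGE autoradiography; CIC50 is concentration inhibiting 50% of farnesylated Ras band.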

Assay [2] has as its target T1, Ras farnesyl transferase. In words: In vivo (intracellular) Ras farnesylation inhibition in Rat2 cell line transformed with H-Ras fused with polybasic lysine domain of K-Ras. The format is cell-based. To be noted: Rat2 cells transformed with H-Ras/K-Ras polybasic domain fused protein; concentration inhibiting 50% of farnesyl binding; read-out: K-Ras CIC50. Put shortly: as §1

Assay [3] addresses T2, Ras farnesyl transferase (Homo sapiens, UniProt P49354+P49356).
T2 construct: made in house
In words: Ras farnesyl transferase enzyme inhibition, H-Ras substrate. The format is biochemical. The following applies: H-Ras substrate protein; recombinant farnesyl transferase; 30 minutes at 37° C.

The target of assay [4] is T2, Ras farnesyl transferase. Nature of the assay: Ras farnesyl transferase enzyme inhibition, K-Ras substrate (H-Ras fused with polybasic lysine domain of K-Ras). To be noted: K-Ras substrate (fused protein of H-Ras with polybasic lysine domain of K-Ras); recombinant farnesyl transferase. In kind it is biochemical.

Bounds are passed on as bounds.

As to `O=C(c1cn(Cc2cncn2CCCOc2ccccc2)cc1-c1cccc2ccccc12)N1CCOCC1` [Example 6, 3-(morpholin-4-yl)carbonyl-4-(naphthalen-1-yl)-1-[1-(3-phenoxypropyl)-1H-imidazol-5-yl]methyl-1H-pyrrole], the IC50 is less than 25 nM in assay [1], 10000 to 50000 nM in assay [2], less than 10 nM in assay [3] and less than 10 nM in assay [4].

Take `O=C(c1cn(Cc2cncn2C2CCN(Cc3ccccc3)CC2)cc1-c1cccc2ccccc12)N1CCOCC1` [Example 14, 1-[1-(1-benzylpiperidin-4-yl)-1H-imidazol-5-yl]methyl-3-(morpholin-4-yl)carbonyl-4-(naphthalen-1-yl)-1H-pyrrole]: the IC50 in assay [1] was less than 25 nM; in assay [2] it was 10000 to 50000 nM; in assay [3] it was less than 10 nM; in assay [4] it was less than 10 nM.

With `COCCN(C)C(=O)c1cn(Cc2c(C)ncn2CCCOCc2ccccc2)cc1-c1cccc2ccccc12` [Example 30, 1-[1-(3-benzyloxypropyl)-4-methyl-1H-imidazol-5-ylmethyl]-3-[N-(2-methoxyethyl)-N-methyl]carbamoyl-4-(naphthalen-1-yl)-1H-pyrrole], the IC50 was less than 12.5 nM in assay [1], less than 10000 nM in assay [2], less than 5 nM in assay [3] and less than 2.1 nM in assay [4].

On to `CN1CCN(C(=O)c2cn(Cc3cncn3CCc3cccs3)cc2-c2cccc3ccccc23)CC1` [Example 11, 3-(4-methylpiperazin-1-yl)carbonyl-4-(naphthalen-1-yl)-1-{1-[2-(thiophen-2-yl)ethyl]-1H-imidazol-5-yl}methyl-1H-pyrrole], for which the IC50 was more than 25 nM in assay [1], 10000 to 50000 nM in assay [2], less than 10 nM in assay [3] and less than 100 nM in assay [4].

These data come from US6511978B1, “Pyrrole derivatives useful for farnesyl transferase inhibitors and their preparations” (LG Life Sciences, Ltd., priority 1999, dated 2003).
